One data set concerns SARS-COV-2. Briefly: microbe, parasite or virus in culture. The following applies: for SI (Selectivity Index, CC50/IC50): SARS-COV-2, values >50 assumed to be 50; for pIC50: read-out: SARS-COV-2 inhibition (IC50). More on the design: SI (Selectivity Index, CC50/IC50): unit not given here. The format is cell-based.
Another data set in a line: in vitro. The conditions noted are these: African green monkey.
[1] abbreviates: Severe acute respiratory syndrome coronavirus 2, Vero, 24 h.
Where [2] appears, read: Severe acute respiratory syndrome coronavirus 2, Vero cells, 24 hours infection.

pIC50: −log10 of the molar value. Where two headings read alike, the source gives them in different places. A value given as a limit tells only on which side of the number the result lay.

A word on the pIC50: it is −log10 of the IC50, conventionally taken in molar units. For `COc1cc2cc3c(c(-c4ccc(N(C)C(=O)c5ccc(Cl)nc5)nc4)c2cc1OC)C(=O)OC3.Cl` [Example 234, 6-chloro-N-(5-(6,7-dimethoxy-3-oxo-1,3-dihydronaphtho[2,3-c]furan-4-yl)pyridin-2-yl)-N-methylnicotinamide], in the data set on SARS-COV-2, the “SI (Selectivity Index, CC50/IC50)” value came out at 1.00. The pIC50 with SARS-COV-2 (setting [1]) was < 4.30. Moreover, the CC50 in the data set “in vitro” is > 50 µM.
In the case of `COc1cc2cc3c(c(-c4ccc(N(C)c5nnc(C)s5)nc4)c2cc1OC)C(=O)OC3` [Example 214, 6,7-dimethoxy-9-(6-(methyl(5-methyl-1,3,4-thiadiazol-2-yl)amino)pyridin-3-yl)naphtho[2,3-c]furan-1(3H)-one], the “SI (Selectivity Index, CC50/IC50)” value in the data set with SARS-COV-2 came out at 1.00. The negative-log IC50 (pIC50) in the data set on SARS-COV-2 (setting [2]) is < 4.30. Further, in the data set “in vitro”, the CC50 was > 50 µM.
The like results for `COc1cc2cc3c(c(N4CC(C)CC(C)C4)c2cc1OC)C(=O)OC3` (stereo not drawn) [Example 4, 9-(3,5-dimethylpiperidin-1-yl)-6,7-dimethoxynaphtho[2,3-c]furan-1(3H)-one] were, in that order, 4.45, 4.95 and > 50 µM.
For `CCN(Cc1ccccc1C(F)(F)F)c1ccc(-c2c3c(cc4cc(OC)c(OC)cc24)COC3=O)cn1` [Example 209, 9-(6-(ethyl(2-(trifluoromethyl)benzyl)amino)pyridin-3-yl)-6,7-dimethoxynaphtho[2,3-c]furan-1(3H)-one], in that order: 14.52, 5.46 and > 50 µM.
As for `COc1cc2cc3c(c(-c4ccc(N(C)c5ccc(C#N)cc5)nc4)c2cc1OC)C(=O)OC3.Cl` [Example 218, 4-((5-(6,7-dimethoxy-3-oxo-1,3-dihydronaphtho[2,3-c]furan-4-yl)pyridin-2-yl)(methyl)amino)benzonitrile], the “SI (Selectivity Index, CC50/IC50)” value with SARS-COV-2 amounted to 65.75. In addition, in the data set on SARS-COV-2 (setting [1]), the negative logarithm of the IC50 (pIC50) is 6.12. The CC50 in the data set “in vitro” is > 50 µM.
For the molecule `COc1cc2c(OC)c3c(c(-c4ccc(-n5cc(C#N)c(N(C)C)n5)nc4)c2cc1OC)COC3=O` [Example 264, 3-(dimethylamino)-1-(5-(6,7,9-trimethoxy-1-oxo-1,3-dihydronaphtho[2,3-c]furan-4-yl)pyridin-2-yl)-1H-pyrazol-4-carbonitrile], the “SI (Selectivity Index, CC50/IC50)” value in the data set with SARS-COV-2 was 1.00. In addition, the pIC50 in the data set on SARS-COV-2 (setting [2]) is < 4.30. In addition, the CC50 in “in vitro” is > 50 µM.
`CCCCN(C)c1ncc(-c2c3c(cc4cc(OC)c(OC)cc24)COC3=O)cn1` [Example 71, 9-(2-(butyl(methyl)amino)pyrimidin-5-yl)-6,7-dimethoxynaphtho[2,3-c]furan-1(3H)-one]: the “SI (Selectivity Index, CC50/IC50)” value with SARS-COV-2 is reported as 234.36. Moreover, the negative-log IC50 (pIC50) in the data set with SARS-COV-2 (setting [1]) is 6.68. Further, the CC50 in “in vitro” is > 50 µM.
For the molecule `CCN(Cc1cccs1)c1ccc(-c2c3c(cc4cc(OC)c(OC)cc24)COC3=O)cn1` [Example 199, 9-(6-(ethyl(thiophen-2-ylmethyl)amino)pyridin-3-yl)-6,7-dimethoxynaphtho[2,3-c]furan-1(3H)-one], the “SI (Selectivity Index, CC50/IC50)” value in the data set with SARS-COV-2 is recorded as 25.20. For the same molecule, in the data set on SARS-COV-2 (setting [2]), the pIC50 was 5.70. Further, the CC50 in the data set “in vitro” was > 50 µM.
The like results for `COc1ccc2c(-c3c4c(cc5cc(OC)c(OC)cc35)COC4=O)ccnc2c1` [Example 150, 6,7-dimethoxy-9-(7-methoxyquinolin-4-yl)naphtho[2,3-c]furan-1(3H)-one] were, in that order, 1.0, < 4.30 and > 50 µM.
On to `CCN(CC)c1ccc(-c2c3c(cc4cc(OC)c(OC)cc24)COC3=O)cn1` [Example 160, 9-(6-(diethylamino)pyridin-3-yl)-6,7-dimethoxynaphtho[2,3-c]furan-1(3H)-one], for which the “SI (Selectivity Index, CC50/IC50)” value with SARS-COV-2 is given as 60.45. Also, the pIC50 with SARS-COV-2 (setting [2]) is 6.08. Besides, in “in vitro”, the CC50 was > 50 µM.
For `COc1cc2cc3c(c(-c4cc5c(cc4OC(=O)[C@@H]4CCCN4)OCO5)c2cc1OC)C(=O)OC3` [Example 273, 6-(6,7-dimethoxy-3-oxo-1,3-dihydronaphtho[2,3-c]furan-4-yl)benzo[d][1,3]dioxol-5-yl L-prolinate], in that order: 36.52, 5.86 and > 50 µM.
Take `COCCN(C)c1ccc(-c2c3c(cc4cc(OC)c(OC)cc24)COC3=O)cn1.Cl` [Example 168, 6,7-dimethoxy-9-(6-((2-methoxyethyl)(methyl)amino)pyridin-3-yl)naphtho[2,3-c]furan-1(3H)-one hydrochloride]: the “SI (Selectivity Index, CC50/IC50)” value in the data set on SARS-COV-2 is given as 42.46. The negative logarithm of the IC50 (pIC50) in the data set on SARS-COV-2 (setting [1]) is 5.93. The CC50 in “in vitro” is > 50 µM.
`COc1cc2cc3c(c(-c4cnccn4)c2cc1OC)C(=O)OC3` [Example 32, 6,7-dimethoxy-9-(pyrazin-2-yl)naphtho[2,3-c]furan-1(3H)-one]: the “SI (Selectivity Index, CC50/IC50)” value in the data set on SARS-COV-2 is listed as 1.00. In addition, the negative-log IC50 (pIC50) in the data set on SARS-COV-2 (setting [2]) is < 4.30. The CC50 in “in vitro” is > 50 µM.
Consider `COc1cc2c(OC)c3c(c(-c4ccc(N(C)[C@H]5CCc6c(cccc6OC)C5)nc4)c2cc1OC)COC3=O` [Example 266, (S)-6,7,9-trimethoxy-4-(6-((5-methoxy-1,2,3,4-tetrahydronaphthalen-2-yl)(methyl)amino)pyridin-3-yl)naphtho[2,3-c]furan-1(3H)-one], for which the “SI (Selectivity Index, CC50/IC50)” value in the data set on SARS-COV-2 came out at 1.00. For the same molecule, in the data set with SARS-COV-2 (setting [2]), the pIC50 is < 4.30. Further, the CC50 in “in vitro” is > 50 µM.
With `COc1cc2cc3c(c(-c4ccc5c(CN6CCOCC6)c[nH]c5c4)c2cc1OC)C(=O)OC3.Cl` [Example 203, 6,7-dimethoxy-9-(3-(morpholinomethyl)-1H-indol-6-yl)naphtho[2,3-c]furan-1(3H)-one], in the data set on SARS-COV-2, the “SI (Selectivity Index, CC50/IC50)” value came to 8.39. For the same molecule, the negative-log IC50 (pIC50) in the data set with SARS-COV-2 (setting [1]) is 5.45. In addition, the CC50 in “in vitro” stood at 29.7 µM.
As to `COc1cc2cc3c(c(-c4ccc(N(C)c5nnc(C)o5)nc4)c2cc1OC)C(=O)OC3` [Example 231, 6,7-dimethoxy-9-(6-(methyl(5-methyl-1,3,4-oxadiazol-2-yl)amino)pyridin-3-yl)naphtho[2,3-c]furan-1(3H)-one], in the data set on SARS-COV-2, the “SI (Selectivity Index, CC50/IC50)” value is recorded as 1.00. Besides, the pIC50 in the data set on SARS-COV-2 (setting [2]) is < 4.30. The CC50 in the data set “in vitro” was > 50 µM.
For the molecule `COc1cc2cc3c(c(-c4ccc(N5CCC(C)CC5)nc4)c2cc1OC)C(=O)OC3` [Example 159, 6,7-dimethoxy-9-(6-(4-methylpiperidin-1-yl)pyridin-3-yl)naphtho[2,3-c]furan-1(3H)-one], the “SI (Selectivity Index, CC50/IC50)” value in the data set with SARS-COV-2 turned out to be 32.86. Moreover, the pIC50 in the data set on SARS-COV-2 (setting [2]) was 5.82. The CC50 in the data set “in vitro” is > 50 µM.
`CCCN(CCO)c1ncc(-c2c3c(cc4cc(OC)c(OC)cc24)COC3=O)cn1.Cl` [Example 77, 9-(2-((2-hydroxyethyl)(propyl)amino)pyrimidin-5-yl)-6,7-dimethoxynaphtho[2,3-c]furan-1(3H)-one hydrochloride]: the “SI (Selectivity Index, CC50/IC50)” value with SARS-COV-2 is 1.58. Further, in the data set with SARS-COV-2 (setting [1]), the negative-log IC50 (pIC50) was 4.50. The CC50 in “in vitro” was > 50 µM.
On to `COc1cc2cc3c(c(-c4cc5c(cc4OC(C)=O)OCO5)c2cc1OC)C(=O)OC3` [Example 274, 6-(6,7-dimethoxy-3-oxo-1,3-dihydronaphtho[2,3-c]furan-4-yl)benzo[d][1,3]dioxol-5-yl acetate], for which, in the data set with SARS-COV-2, the “SI (Selectivity Index, CC50/IC50)” value stood at 19.61. Also, the pIC50 with SARS-COV-2 (setting [2]) was 5.59. Moreover, the CC50 in “in vitro” was > 50 µM.
The like results for `COc1cc2cc3c(c(-c4cccc(N5CCOCC5)c4)c2cc1OC)C(=O)OC3` [Example 244, 6,7-dimethoxy-9-(3-morpholinophenyl)naphtho[2,3-c]furan-1(3H)-one] were, in that order, 1.00, < 4.30 and > 50 µM.
For `COc1cc2cc3c(c(-c4cc(C)nc5c(F)cc(F)cc45)c2cc1OC)C(=O)OC3` [Example 139, 9-(6,8-difluoro-2-methylquinolin-4-yl)-6,7-dimethoxynaphtho[2,3-c]furan-1(3H)-one], in that order: 1.0, < 4.30 and > 50 µM.
Turning to `COc1cc2cc3c(c(-c4ccc(N5CCOCC5)nc4)c2cc1OC)C(=O)OC3` [Example 124, 6,7-dimethoxy-9-(6-morpholinopyridin-3-yl)naphtho[2,3-c]furan-1(3H)-one], the “SI (Selectivity Index, CC50/IC50)” value with SARS-COV-2 was determined as 176.18. Moreover, in the data set with SARS-COV-2 (setting [2]), the pIC50 was 6.55. Further, the CC50 in the data set “in vitro” was > 50 µM.
Regarding `COc1cc2cc3c(c(-c4cc5c(cc4OC(=O)C(C)C)OCO5)c2cc1OC)C(=O)OC3` [Example 275, 6-(6,7-dimethoxy-3-oxo-1,3-dihydronaphtho[2,3-c]furan-4-yl)benzo[d][1,3]dioxol-5-yl isobutrate], in the data set on SARS-COV-2, the “SI (Selectivity Index, CC50/IC50)” value stood at 1.76. Moreover, the negative logarithm of the IC50 (pIC50) with SARS-COV-2 (setting [2]) is 4.55. In addition, the CC50 in “in vitro” was > 50 µM.
`COc1cc2cc3c(c(-c4cccc(N5CCCC5)c4)c2cc1OC)C(=O)OC3.Cl` [Example 252, 6,7-dimethoxy-9-(3-(pyrrolidin-1-yl)phenyl)naphtho[2,3-c]furan-1(3H)-one]: in the data set with SARS-COV-2, the “SI (Selectivity Index, CC50/IC50)” value amounted to 1. Also, the pIC50 in the data set on SARS-COV-2 (setting [1]) was < 4.30. In addition, in the data set “in vitro”, the CC50 was > 50 µM.
The like results for `COc1cc2cc3c(c(-c4cc5c(cc4OP(=O)(NCCN4CCOCC4)c4ccccc4)OCO5)c2cc1OC)C(=O)OC3` (stereo not drawn) [Example 280, 6-(6,7-dimethoxy-3-oxo-1,3-dihydronaphtho[2,3-c]furan-4-yl)benzo[d][1,3]dioxol-5-yl N-(2-morpholinoethyl)-P-phenylphosphoramidate] were, in that order, 25.56, 5.71 and > 50 µM.
Take `COCCN(CCOC)c1ccc(-c2c3c(cc4cc(OC)c(OC)cc24)COC3=O)cn1` [Example 174, 9-(6-(bis(2-methoxyethyl)amino)pyridin-3-yl)-6,7-dimethoxynaphtho[2,3-c]furan-1(3H)-one]: the “SI (Selectivity Index, CC50/IC50)” value in the data set on SARS-COV-2 amounted to 2.62. Besides, in the data set with SARS-COV-2 (setting [2]), the pIC50 is 4.72. In addition, in “in vitro”, the CC50 was > 50 µM.
